Target: T1, STING (Homo sapiens, UniProt Q86WV6, G230A/H232R/R293Q/R71H)
T1 construct: host or cells: THP1-Dual cells (human THP-1 monocyte line with Lucia/SEAP reporters)
Test: Reporter gene expression assay in THP1-Dual cells (IRF pathway Lucia luciferase, 2',3'-cGAMP stimulation)
Type: cell-based
Conditions: 10 min preincubation, 5 μM 2',3'-cGAMP, 20 hr, IRF reporter QUANTI-Luc, read-out: THP-1 (HAQ) Activity
Experimental: Reporter Gene Expression Assay in THP-1 Cells
THP1-Dual™ cells (Invivogen) were derived from the human THP-1 monocyte cell line by stable integration of two inducible reporter constructs. As a result, THP1-Dual™ cells allow the simultaneous study of the IRF pathway, by assessing the activity of a secreted luciferase (Lucia) and the NF-κB pathway, by monitoring the activity of secreted SEAP. 5×10^4 THP1-Dual™ cells were seeded in 384-well plates in growth medium and preincubated with novel compounds for 10 minutes followed by stimulation with 5 μM 2′,3′-cGAMP. After 20 hr of stimulation the supernatant was removed and the IRF pathway reporter protein was readily measured in the cell culture supernatant using QUANTI-Luc™ (Invivogen), a luciferase detection reagent on a Spectramax i3X luminometer.
In the tables below, IC50 value ranges for exemplary compounds are given. The IC50 ranges are indicated as “A” for values less than or equal to 1 μM, “B” for values greater than 1 μM and less than or equal to 10 μM, and “C” for values greater than 10 μM.

T1 sequence (Q86WV6 whole entry R71H/G230A/H232R/R293Q): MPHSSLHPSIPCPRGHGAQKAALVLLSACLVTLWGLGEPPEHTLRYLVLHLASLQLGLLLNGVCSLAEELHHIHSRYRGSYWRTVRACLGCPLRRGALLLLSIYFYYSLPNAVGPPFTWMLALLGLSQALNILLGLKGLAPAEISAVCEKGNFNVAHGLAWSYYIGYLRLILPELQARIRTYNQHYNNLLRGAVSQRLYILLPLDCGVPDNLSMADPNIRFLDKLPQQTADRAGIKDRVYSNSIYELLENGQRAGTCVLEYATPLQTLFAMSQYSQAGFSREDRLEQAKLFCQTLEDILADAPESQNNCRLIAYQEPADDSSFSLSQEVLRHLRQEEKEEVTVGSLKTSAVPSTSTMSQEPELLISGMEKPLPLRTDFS

IC50	SMILES
≤ 1000 nM	O=C(Nc1ccc2c(c1)OCC(=O)N2CC1COc2ccccc2O1)Nc1ccc2cc[nH]c2c1 (stereo not drawn) [Example 97, 1-(4-((2,3-dihydrobenzo[b][1,4]dioxin-2-yl)methyl)-3-oxo-3,4-dihydro-2H-benzo[b][1,4]oxazin-7-yl)-3-(1H-indol-6-yl)urea]
1000 to 10000 nM	NC(=O)c1cccc(CN2C(=O)COc3cc(NC(=O)Nc4ccc5cc[nH]c5c4)ccc32)c1 [Example 98, 3-((7-(3-(1H-indol-6-yl)ureido)-3-oxo-2,3-dihydro-4H-benzo[b][1,4]oxazin-4-yl)methyl)benzamide]
≤ 1000 nM	O=C(Nc1ccc2c(c1)OCC(=O)N2Cc1cc(Cl)cc(C(F)(F)F)c1)Nc1ccc2cc[nH]c2c1 [Example 99, l-(4-(3-chloro-5-(trifluoromethyl)benzyl)-3-oxo-3,4-dihydro-2H-benzo[b][1, 4]oxazin-7-yl)-3-(1H-indol-6-yl)urea]
1000 to 10000 nM	O=C(Nc1ccc2c(c1)OCC(=O)N2CCOc1ccccc1Cl)Nc1ccc2cc[nH]c2c1 [Example 100, 1-(4-(2-(2-chlorophenoxy)ethyl)-3-oxo-3,4-dihydro-2H-benzo[b][1,4]oxazin-7-yl)-3-(1H-indol-6-yl)urea]
≤ 1000 nM	O=C(Nc1ccc2c(c1)OCC(=O)N2Cc1ccccc1-c1ccccc1)Nc1ccc2cc[nH]c2c1 [Example 101, 1-(4-([1,1′-biphenyl]-2-ylmethyl)-3-oxo-3,4-dihydro-2H-benzo[b][1,4]oxazin-7-yl)-3-(1H-indol-6-yl)urea]
≤ 1000 nM	O=C(Nc1ccc2c(c1)OCC(=O)N2Cc1cc(F)cc(Cl)c1)Nc1ccc2cc[nH]c2c1 [Example 102, 1-(4-(3-chloro-5-fluorobenzyl)-3-oxo-3,4-dihydro-2H-benzo[b][1,4]oxazin-7-yl)-3-(1H-indol-6-yl)urea]
≤ 1000 nM	O=C(Nc1ccc2c(c1)OCC(=O)N2Cc1cc2c(cc1Cl)OCO2)Nc1ccc2cc[nH]c2c1 [Example 103, 1-(4-((6-chlorobenzo[d][1,3]dioxol-5-yl)methyl)-3-oxo-3,4-dihydro-2H-benzo[b][1,4]oxazin-7-yl)-3-(1H-indol-6-yl)urea]
≤ 1000 nM	O=C(Nc1ccc2c(c1)OCC(=O)N2Cc1ccc(C(F)(F)F)nc1)Nc1ccc2cc[nH]c2c1 [Example 104, 1-(1H-indol-6-yl)-3-(3-oxo-4-((6-(trifluoromethyl)pyridin-3-yl)methyl)-3,4-dihydro-2H-benzo[b][1,4]oxazin-7-yl)urea]
≤ 1000 nM	O=C(Nc1ccc2c(c1)OCC(=O)N2Cc1cc(F)cc(F)c1)Nc1ccc2cc[nH]c2c1 [Example 105, 1-(4-(3,5-difluorobenzyl)-3-oxo-3,4-dihydro-2H-benzo[b][1,4]oxazin-7-yl)-3-(1H-indol-6-yl)urea]
≤ 1000 nM	O=C(Nc1ccc2c(c1)OCC(=O)N2Cc1ccc(SC(F)(F)F)cc1)Nc1ccc2cc[nH]c2c1 [Example 106, 1-(1H-indol-6-yl)-3-(3-oxo-4-(4-((trifluoromethyl)thio)benzyl)-3,4-dihydro-2H-benzo[b][1,4]oxazin-7-yl)urea]
≤ 1000 nM	O=C(Nc1ccc2c(c1)OCC(=O)N2Cc1ccc(OC(F)(F)F)c(Cl)c1)Nc1ccc2cc[nH]c2c1 [Example 107, 1-(4-(3-chloro-4-(trifluoromethoxy)benzyl)-3-oxo-3,4-dihydro-2H-benzo[b][1,4]oxazin-7-yl)-3-(1H-indol-6-yl)urea]
≤ 1000 nM	Cc1cc(CN2C(=O)COc3cc(NC(=O)Nc4ccc5cc[nH]c5c4)ccc32)ccc1F [Example 108, 1-(4-(4-fluoro-3-methylbenzyl)-3-oxo-3,4-dihydro-2H-benzo[b][1,4]oxazin-7-yl)-3-(1H-indol-6-yl)urea]
≤ 1000 nM	O=C(Nc1ccc2c(c1)OCC(=O)N2Cc1ccc(OC(F)F)cc1)Nc1ccc2cc[nH]c2c1 [Example 109, 1-(4-(4-(difluoromethoxy)benzyl)-3-oxo-3,4-dihydro-2H-benzo[b][1,4]oxazin-7-yl)-3-(1H-indol-6-yl)urea]

Further lines, the compound ahead of its results:

SMILES	IC50
O=C(Nc1ccc2c(c1)N(Cc1ccccc1)CC2)Nc1ccc2cc[nH]c2c1 [Example 74, 1-(1-Benzylindolin-6-yl)-3-(1H-indol-6-yl)urea]	1000 to 10000 nM
O=C(Nc1ccc2c(c1)OCC(=O)N2c1ccccc1)Nc1ccc2cc[nH]c2c1 [Example 75, 1-(1H-Indol-6-yl)-3-(3-oxo-4-phenyl-3,4-dihydro-2H-benzo[b][1,4]oxazin-7-yl)urea]	1000 to 10000 nM
NC(=O)CC1Sc2ccc(NC(=O)Nc3ccc4cc[nH]c4c3)cc2N(Cc2ccccc2)C1=O (stereo not drawn) [Example 76, 2-(6-(3-(1H-Indol-6-yl)ureido)-4-benzyl-3-oxo-3,4-dihydro-2H-benzo[b][1,4]thiazin-2-yl)acetamide]	1000 to 10000 nM
N#CCC1Sc2ccc(NC(=O)Nc3ccc4cc[nH]c4c3)cc2N(Cc2ccccc2)C1=O (stereo not drawn) [Example 77]	1000 to 10000 nM
C=CCC1COc2ccc(NC(=O)Nc3ccc4cc[nH]c4c3)cc2N1Cc1ccccc1 (stereo not drawn) [Example 78, 1-(3-Allyl-4-benzyl-3,4-dihydro-2H-benzo[b][1,4]oxazin-6-yl)-3-(1H-indol-6-yl)urea]	≤ 1000 nM
O=C(Nc1ccc2c(c1)N(Cc1ccccc1)C(CC(O)CO)CO2)Nc1ccc2cc[nH]c2c1 (stereo not drawn) [Example 79, 1-(4-Benzyl-3-(2,3-dihydroxypropyl)-3,4-dihydro-2H-benzo[b][1,4]oxazin-6-yl)-3-(1H-indol-6-yl)urea]	1000 to 10000 nM
O=C(Nc1ccc2c(c1)N(Cc1ccccc1)C(CCO)CO2)Nc1ccc2cc[nH]c2c1 (stereo not drawn) [Example 80, 1-(4-Benzyl-3-(2-hydroxyethyl)-3-,4-dihydro-2H-benzo[b][1,4]oxazin-6-yl)-3-(1H-indol-6-yl)urea]	1000 to 10000 nM
N#CC1COc2ccc(NC(=O)Nc3ccc4cc[nH]c4c3)cc2N1Cc1ccccc1 (stereo not drawn) [Example 81, 1-(4-Benzyl-3-cyano-3,4-dihydro-2H-benzo[b][1,4]oxazin-6-yl)-3-(1H-indol-6-yl)urea]	1000 to 10000 nM
NCC1COc2ccc(NC(=O)Nc3ccc4cc[nH]c4c3)cc2N1Cc1ccccc1 (stereo not drawn) [Example 82]	> 10000 nM
NC(=O)C1COc2ccc(NC(=O)Nc3ccc4cc[nH]c4c3)cc2N1Cc1ccccc1 (stereo not drawn) [Example 83]	1000 to 10000 nM
NC(=O)C(c1ccccc1)N1CCOc2ccc(NC(=O)Nc3ccc4cc[nH]c4c3)cc21 (stereo not drawn) [Example 84, 2-(6-(3-(1H-Indol-6-yl)ureido)-2,3-dihydro-4H-benzo[b][1,4]oxazin-4-yl)-2-phenylacetamide]	1000 to 10000 nM
O=C(Nc1ccc2c(c1)N(C(CO)c1ccccc1)CCO2)Nc1ccc2cc[nH]c2c1 (stereo not drawn) [Example 85, 1-(4-(2-Hydroxy-1-phenylethyl)-3,4-dihydro-2H-benzo[b][1,4]oxazin-6-yl)-3-(1H-indol-6-yl)urea]	1000 to 10000 nM
COC(=O)C(c1ccccc1)N1CCOc2ccc(NC(=O)Nc3ccc4cc[nH]c4c3)cc21 (stereo not drawn) [Example 86]	1000 to 10000 nM
CN1C(=O)CSc2ccc(NC(=O)Nc3ccc4cc[nH]c4c3)cc21 [Example 87, 1-(1H-indol-6-yl)-3-(4-methyl-3-oxo-3,4-dihydro-2H-benzo[b][1, 4]thiazin-6-yl)urea]	1000 to 10000 nM
O=C1COc2cc(NC(=O)Nc3ccc4cc[nH]c4c3)ccc2N1 [Example 88, 1-(1H-indol-6-yl)-3-(3-oxo-3,4-dihydro-2H-benzo[b][1, 4]oxazin-7-yl)urea]	> 10000 nM
O=C(Nc1ccc2c(c1)SCC(=O)N2Cc1c(F)cccc1Cl)Nc1ccc2cc[nH]c2c1 [Example 89, 1-(4-(2-chloro-6-fluorobenzyl)-3-oxo-3,4-dihydro-2H-benzo[b][1, 4]thiazin-7-yl)-3-(1H-indol-6-yl)urea]	≤ 1000 nM
CC1(C)Oc2cc(NC(=O)Nc3ccc4cc[nH]c4c3)ccc2N(Cc2ccccc2)C1=O [Example 90, 1-(4-benzyl-2,2-dimethyl-3-oxo-3,4-dihydro-2H-benzo[b][1, 4]oxazin-7-yl)-3-(1H-indol-6-yl)urea]	1000 to 10000 nM
Cc1cc2cc[nH]c2cc1NC(=O)Nc1ccc2c(c1)OCC(=O)N2Cc1ccccc1 [Example 91, 1-(4-benzyl-3-oxo-3,4-dihydro-2H-benzo[b][1, 4]oxazin-7-yl)-3-(5-methyl-1H-indol-6-yl)urea]	> 10000 nM
Cc1cc2ccc(NC(=O)Nc3ccc4c(c3)OCC(=O)N4Cc3ccccc3)cc2[nH]1 [Example 92, 1-(4-benzyl-3-oxo-3,4-dihydro-2H-benzo[b][1, 4]oxazin-7-yl)-3-(2-methyl-1H-indol-6-yl)urea]	1000 to 10000 nM
O=C(Nc1ccc2c(c1)OCC(=O)N2Cc1c(F)cccc1Cl)Nc1ccc2cc[nH]c2c1 [Example 93, l-(4-(2-chloro-6-fluorobenzy 1)-3-oxo-3,4-dihydro-2H-benzo[b][i, 4]oxazin-7-yl)-3-(1H-indol-6-yl)urea]	1000 to 10000 nM
O=C(Nc1ccc2c(c1)OCC(=O)N2Cc1ccc(F)cc1Cl)Nc1ccc2cc[nH]c2c1 [Example 94, 1-(4-(2-chloro-4-fluorobenzy 1)-3-oxo-3,4-dihydro-2H-benzo[b][1,4]oxazin-7-yl)-3-(1H-indol-6-yl)urea]	≤ 1000 nM
O=C(Nc1ccc2c(c1)OCC(=O)N2Cc1cccc(F)c1F)Nc1ccc2cc[nH]c2c1 [Example 95, 1-(4-(2,3-difluorobenzyl)-3-oxo-3,4-dihydro-2H-benzo[b][1, 4]oxazin-7-yl)-3-(1H-indol-6-yl)urea]	≤ 1000 nM
O=C(Nc1ccc2c(c1)OCC(=O)N2Cc1c(F)cccc1F)Nc1ccc2cc[nH]c2c1 [Example 96, 1-(4-(2,6-difluorobenzyl)-3-oxo-3,4-dihydro-2H-benzo [b][1, 4]oxazin-7-yl)-3-(1H-indol-6-yl)urea]	> 10000 nM

From patent US20230124361A1, “SMALL MOLECULE STING ANTAGONISTS” (CURADEV PHARMA PVT. LTD., priority 2020, published 2023)
